Data as given in patent publication US20260209200A1, “SALTS OF A DIHYDROOROTATE DEHYDROGENASE (DHOD) INHIBITOR” (priority 2022, published 2026).
Converted amounts (≈) assume the structure as drawn.

Columns and labels:
[1] = in vivo; conditions: dog
Description: (§1) Suspensions were stirred continuously prior to dose.
A total of 6 male beagle dogs were used (n=3). 6 male dogs assigned to the study were divided into 2 periods with 6 dogs per period and two dosing cycles separated by a 7-day washout period. The diet was provided ad libitum throughout the in-life portion of the study, except for the fasting prior to dosing through 4 hours post dose. Drinking water was available daily ad libitum to all animals. Formulated PP-001 salts were administered to male beagle dogs by oral administration at 4 mg/kg with dosed volume at 2 mL/kg.
(§2) Plasma samples were collected via the jugular vein cannulation into EDTA-K3 tubes at 0.25, 0.5, 1, 2, 4, 8, and 24 hours post-dose administration. For analytical batch of single oral administration, plasma concentrations of salts of PP-001 were determined using LC-MS/MS with a lower limit of quantitation of 10 ng/mL.
(§3) The pharmacokinetic parameters of PP-001 salts were determined by non-compartmental analysis using WinNonlin Version 8.0 (Pharsight, Mountain View, CA). The area under the curve from the time of dosing to the last measurable concentration, AUC0-t, was calculated by the linear trapezoidal rule. The area under the concentration-time curve extrapolated to infinity, AUCinf, was calculated using a regression of the natural logarithm of the concentration values versus sampling time of the terminal slope (Lambda Z, k). This value is also used to calculate half-life (T1/2) as follows:
(§4) The bioavailability was calculated as follows:
(§5) [formula] • wherein PO is an oral administration and IV is an intravenous injection.

[2] = Solubility of PP-001 free acid in supernatant of 10 mg/mL formulation in FaSSIF; assay type: physicochemical; conditions: supernatant of 10 mg/mL formulation at 25° C. in FaSSIF after 120 min
[3] = in vivo; conditions: rat, in vivo, po
Description: as §1
A total of 27 male SD rats were used (n=3). 27 male SD rats assigned to the study were divided into 9 groups and a single type of formulated PP-001 salt was orally administered to each group of rats at dose level of 4 mg/kg (2 mL/kg dose volume). The diet was provided ad libitum throughout the in-life portion of the study, except for the fasting prior to dosing through 4 hours post dose. Drinking water was available daily ad libitum to all animals.
as §2, with “1” for “10”
as §3, §4, §5

[4] = Thermodynamic (equilibrium) solubility of PP-001 salts in FaSSIF; assay type: physicochemical; conditions: 3 mL FaSSIF, 37° C.; for Thermodynamic solubility: saturated (target 10 mg/mL), time point 2 hrs, pH 6.4 to 6.5
Description: As the solid was completely dissolved, add more sample to keep it saturated. […] Then at the time point 2 hrs, 0.5 mL of sample solution was transferred into 1.5 mL centrifugation tube and centrifuged at 12,000 RPM for 10 min. The supernatant was diluted by 50% ACN suitable and analyzed by HPLC. The pH was tested after 24 hours.

[5] = Kinetic solubility of PP-001 salts in FaSSIF (HPLC); assay type: physicochemical; conditions: 4 mL FaSSIF, 25° C., target 2 mg/mL
Description: Approximately 8 mg (calculated as freebase) of each salt was weighed out into each glass vial and then 4 ml of FaSSIF was added (target concentration was 2 mg/mL). The sample was kept stirring on a magnetic stirrer at a speed of I 00 RPM under 25° C. Then at the time points of initial, 0.5 hr, 1 hr, 2 hrs and 24 hrs, 0.5 mL of sample solution was transferred into 1.5 mL centrifugation tube and centrifuged at 12,000 RPM for 10 min. The supernatant was diluted by 50% ACN suitable and analyzed by HPLC.
An HPLC method of testing solubility was performed as follows in Table A: […]

Compound: O=C(Nc1c(F)c(F)c(-c2cccc(OC(F)(F)F)c2)c(F)c1F)c1ccsc1C(=O)O [PP-001 free acid, 3-(2,3,5,6-tetrafluoro-3′-trifluoromethoxy-biphenyl-4-ylcarbamoyl)-thiophene-2-carboxylic acid]
- Increase in oral BA vs free acid in dogs ([1]; male, beagle): 1
- bioavailability ([1]; male, beagle, po, 4 mg/kg): 23%
- solubility at 120 min [2]: 1200 µg/mL (≈ 2500 µM)
- Increase in oral BA vs free acid in rats ([3]; male, SD): 1
- bioavailability ([3]; male, SD, 4 mg/kg): 7.8%

Compound: Tromethamine
- Increase in oral BA vs free acid in dogs [1]: 2.4
- AUC0-∞ ([1]; po, 4 mg/kg): 106528 ng·h/mL
- AUCExtr ([1]; po, 4 mg/kg): 2.03%
- AUCinf/D ([1]; po, 4 mg/kg): 26632 kg·ng·h/mL/mg
- AUClast ([1]; po, 4 mg/kg): 104381 ng·h/mL
- Cmax ([1]; po, 4 mg/kg): 20467 ng/mL
- F, bioavailability (BA) in dogs ([1]; po, 4 mg/kg): 54.4%
- MRT0-∞ ([1]; po, 4 mg/kg): 5.38 h
- T1/2 ([1]; po, 4 mg/kg): 4.13 h
- Tmax ([1]; po, 4 mg/kg): 2.67 h
- Final pH ([4]; pH tested after 24 hours): 6.44
- Appearance after stirring for 24 hours ([4]; saturated): Suspension
- Thermodynamic solubility [4]: 3700 µg/mL
- Thermodynamic solubility ([4]; listed as Tromethamine cation): 3700 µg/mL
- Appearance after stirring for 24 hours [5]: clear solution
- Final pH [5]: 6.51
- Solubility at different time points, 0.5 h ([5]; 0.5 h): 1990 µg/mL
- Solubility at different time points, 1 h ([5]; 1 h): 1950 µg/mL
- Solubility at different time points, 2 h ([5]; 2 h): 1960 µg/mL
- Solubility at different time points, 24 h ([5]; 24 h): 2020 µg/mL
- Solubility at different time points, Initial ([5]; initial): 1720 µg/mL
- Increase in oral BA vs free acid in rats [3]: 1.6
- AUC0-∞ ([3]; 4 mg/kg): 21874 ng·h/mL
- AUCExtr ([3]; 4 mg/kg): 0.930%
- AUCinf/D ([3]; 4 mg/kg): 5469 kg·ng·h/mL/mg
- AUClast ([3]; 4 mg/kg): 21665 ng·h/mL
- Cmax ([3]; 4 mg/kg): 2787 ng/mL
- F, bioavailability (BA) in rats ([3]; 4 mg/kg): 12.5%
- MRT0-∞ ([3]; 4 mg/kg): 5.38 h
- Tmax ([3]; 4 mg/kg): 4.00 h
- T1/2 ([3]; 4 mg/kg, pH 6.8): 3.39 h
